# Test results: ChEMBL document CHEMBL5346943, “Discovery and Structural Optimization of Novel Quinolone Derivatives as Potent Irreversible Pan-Fibroblast Growth Factor Receptor Inhibitors for Treating Solid Tumors” (J Med Chem, 2023); call rule not given here
# Key:
# [1] = Microsomal stability in human liver microsomes assessed as half life preincubated for 10 mins followed by NADPH addition measured upto 60 mins by LC-MS/MS analysis; format: ADME, Microsome; details: time < 70 min
# [2] = Toxicity in […] nude mouse xenografted with Huh-7 cells assessed as change in body weight once daily at 15 to 60 mg/kg, po for 24 days relative to control; format: organism-based; details: in vivo, 576 h, dose 15-60 mg/kg, time 24 day
# HT-29 = test: Antiproliferative activity against human HT-29 cells incubated for 72 hrs by Cell counting kit 8 method; format: functional, cell-based; details: HT-29, 72 h
# [3] = AUC(0 to infinity) in Sprague-Dawley rat measured at 60 mg/kg, po for 0.083 to 24 hrs by LC-MS/MS analysis; format: ADME, organism-based; design: time lower 0.083 hrs, dose 60 mg/kg, time upper 24 hrs, route po; details: in vivo
# [4] = Permeability of the compound at 10 uM preincubated in acceptor compartment for 16 hrs followed by 16 hrs incubation in donor compartment by PAMPA based LC-MS/MS analysis; format: ADME; details: time 32 hrs, read-out: permeability
# [5] = Volume of distribution at steady state in Sprague-Dawley rat measured at 2 mg/kg, iv for 0.083 to 24 hrs by LC-MS/MS analysis; format: ADME, organism-based; details: in vivo, time 0.083-24 hrs, read-out: Vdss
# SNU-16 = test: Antiproliferative activity against human SNU-16 cells incubated for 72 hrs by Cell counting kit 8 method; format: functional, cell-based; details: SNU-16, 72 h
# [6] = Tmax in Sprague-Dawley rat measured at 60 mg/kg, po for 0.083 to 24 hrs by LC-MS/MS analysis; format: ADME, organism-based; details: in vivo, time 0.083-24 hrs
# [7] = AUC (0 to infinity) in Sprague-Dawley rat measured at 10 mg/kg, po for 0.083 to 24 hrs by LC-MS/MS analysis; format: ADME, organism-based; design: dose 10 mg/kg, time upper 24 hrs, time lower 0.083 hrs, route po; details: in vivo
# [8] = MRT (0 to infinity) in Sprague-Dawley rat measured at 10 mg/kg, po for 0.083 to 24 hrs by LC-MS/MS analysis; format: ADME, organism-based; details: in vivo, time 0.083-24 hrs
# [9] = Tmax in Sprague-Dawley rat measured at 2 mg/kg, iv for 0.083 to 24 hrs by LC-MS/MS analysis; format: ADME, organism-based; details: in vivo, time 0.083-24 hrs
# Huh-7 [10] = test: Antiproliferative activity against human Huh-7 cells incubated for 72 hrs by Cell counting kit 8 method; format: functional, cell-based; details: Huh-7, 72 h
# [11] = Ionization constant, pKa of the compound in PBS buffer at pH 1.42 to 12.33 by electrochemical method; format: physicochemical
# Huh-7 [12] = test: Antitumor activity against human Huh-7 cells xenografted in BALB/c nude mouse assessed as tumor growth inhibition once daily at 30 mg/kg, po for 24 days relative to control; format: functional; design: scale not given: the % may be the effect or the level left; details: time 24 day
# [13] = Tmax in Sprague-Dawley rat measured at 10 mg/kg, po for 0.083 to 24 hrs by LC-MS/MS analysis; format: ADME, organism-based; details: in vivo, time 0.083-24 hrs
# [14] = biological target: Fibroblast growth factor receptor 1 (Homo sapiens, UniProt P11362); test: Inhibition of FGFR1 (unknown origin) incubated for 10 mins followed by substrate addition measured after 60 mins by ADP-Glo luminescence assay
# [15] = Toxicity in […] nude mouse xenografted with NCI-H1581 cells assessed as change in body weight once daily at 15 to 60 mg/kg, po for 24 days relative to control; format: organism-based; details: in vivo, 576 h, dose 15-60 mg/kg, time 24 day
# [16] = MRT (0 to infinity) in Sprague-Dawley rat measured at 2 mg/kg, iv for 0.083 to 24 hrs by LC-MS/MS analysis; format: ADME, organism-based; details: in vivo, time 0.083-24 hrs
# Hep 3B2 = test: Antiproliferative activity against human Hep3B cells incubated for 72 hrs by Cell counting kit 8 method; format: functional, cell-based
# NCI-H1581 [17] = test: Antitumor activity against human NCI-H1581 cells xenografted in BALB/c nude mouse assessed as tumor growth inhibition once daily at 60 mg/kg, po for 24 days relative to control; format: functional; design: scale not given: the % may be the effect or the level left; details: time 24 day
# [18] = Antiproliferative activity against human RBE cells incubated for 72 hrs by Cell counting kit 8 method; format: functional, cell-based
# MV4-11 = test: Antiproliferative activity against human MV4-11 cells incubated for 72 hrs by Cell counting kit 8 method; format: functional, cell-based; details: MV4-11, 72 h
# [19] = Cmax in Sprague-Dawley rat measured at 30 mg/kg, po for 0.083 to 24 hrs by LC-MS/MS analysis; format: ADME, organism-based; design: dose 30 mg/kg, time upper 24 hrs, time lower 0.083 hrs, route po; details: in vivo
# [20] = Oral bioavailability in Sprague-Dawley rat measured at 10 mg/kg for 0.083 to 24 hrs by LC-MS/MS analysis; format: ADME, organism-based; details: in vivo, time 0.083-24 hrs
# [21] = AUC (0 to t) in Sprague-Dawley rat measured at 10 mg/kg, po for 0.083 to 24 hrs by LC-MS/MS analysis; format: ADME, organism-based; design: dose 10 mg/kg, time upper 24 hrs, time lower 0.083 hrs, route po; details: in vivo
# [22] = Half life in Sprague-Dawley rat measured at 2 mg/kg, iv for 0.083 to 24 hrs by LC-MS/MS analysis; format: ADME, organism-based; details: in vivo, time 0.083-24 hrs
# [23] = Cmax in Sprague-Dawley rat measured at 2 mg/kg, iv for 0.083 to 24 hrs by LC-MS/MS analysis; format: ADME, organism-based; design: time upper 24 hrs, time lower 0.083 hrs, dose 2 mg/kg, route iv; details: in vivo
# [24] = Tmax in Sprague-Dawley rat measured at 30 mg/kg, po for 0.083 to 24 hrs by LC-MS/MS analysis; format: ADME, organism-based; details: in vivo, time 0.083-24 hrs
# [25] = biological target: Fibroblast growth factor receptor 2 (Homo sapiens, UniProt P21802); test: Inhibition of FGFR2 (unknown origin) incubated for 10 mins followed by substrate addition measured after 60 mins by ADP-Glo luminescence assay
# [26] = AUC(0 to t) in Sprague-Dawley rat measured at 30 mg/kg, po for 0.083 to 24 hrs by LC-MS/MS analysis; format: ADME, organism-based; design: time 0.083-24 hrs, dose 30 mg/kg, route po; details: in vivo
# [27] = C0 in Sprague-Dawley rat measured at 2 mg/kg, iv for 0.083 to 24 hrs by LC-MS/MS analysis; format: ADME, organism-based; details: in vivo, time 0.083-24 hrs
# A549 = test: Antiproliferative activity against human A549 cells incubated for 72 hrs by Cell counting kit 8 method; format: functional, cell-based; details: A549, 72 h
# Huh-7 [28] = test: Antitumor activity against human Huh-7 cells xenografted in BALB/c nude mouse assessed as tumor growth inhibition once daily at 60 mg/kg, po for 24 days relative to control; format: functional; design: scale not given: the % may be the effect or the level left; details: time 24 day
# [29] = Clearance in Sprague-Dawley rat measured at 2 mg/kg, iv for 0.083 to 24 hrs by LC-MS/MS analysis; format: ADME, organism-based; details: in vivo, time 0.083-24 hrs
# [30] = Tmax in Sprague-Dawley rat measured at 100 mg/kg, po for 0.083 to 24 hrs by LC-MS/MS analysis; format: ADME, organism-based; details: in vivo, time 0.083-24 hrs
# [31] = AUC (0 to t) in Sprague-Dawley rat measured at 2 mg/kg, iv for 0.083 to 24 hrs by LC-MS/MS analysis; format: ADME, organism-based; design: dose 2 mg/kg, time upper 24 hrs, time lower 0.083 hrs, route iv; details: in vivo
# [32] = Half life in Sprague-Dawley rat measured at 100 mg/kg, po for 0.083 to 24 hrs by LC-MS/MS analysis; format: ADME, organism-based; details: in vivo, time 0.083-24 hrs
# NCI-H1581 [33] = test: Antiproliferative activity against human NCI-H1581 cells incubated for 72 hrs by Cell counting kit 8 method; format: functional, cell-based; details: NCI-H1581, 72 h
# [34] = Half life in Sprague-Dawley rat measured at 10 mg/kg, po for 0.083 to 24 hrs by LC-MS/MS analysis; format: ADME, organism-based; details: in vivo, time 0.083-24 hrs
# [35] = biological target: Fibroblast growth factor receptor 3 (Homo sapiens, UniProt P22607); test: Inhibition of FGFR3 (unknown origin) incubated for 10 mins followed by substrate addition measured after 60 mins by ADP-Glo luminescence assay
# Sequence of Fibroblast growth factor receptor 3 (P22607 whole entry): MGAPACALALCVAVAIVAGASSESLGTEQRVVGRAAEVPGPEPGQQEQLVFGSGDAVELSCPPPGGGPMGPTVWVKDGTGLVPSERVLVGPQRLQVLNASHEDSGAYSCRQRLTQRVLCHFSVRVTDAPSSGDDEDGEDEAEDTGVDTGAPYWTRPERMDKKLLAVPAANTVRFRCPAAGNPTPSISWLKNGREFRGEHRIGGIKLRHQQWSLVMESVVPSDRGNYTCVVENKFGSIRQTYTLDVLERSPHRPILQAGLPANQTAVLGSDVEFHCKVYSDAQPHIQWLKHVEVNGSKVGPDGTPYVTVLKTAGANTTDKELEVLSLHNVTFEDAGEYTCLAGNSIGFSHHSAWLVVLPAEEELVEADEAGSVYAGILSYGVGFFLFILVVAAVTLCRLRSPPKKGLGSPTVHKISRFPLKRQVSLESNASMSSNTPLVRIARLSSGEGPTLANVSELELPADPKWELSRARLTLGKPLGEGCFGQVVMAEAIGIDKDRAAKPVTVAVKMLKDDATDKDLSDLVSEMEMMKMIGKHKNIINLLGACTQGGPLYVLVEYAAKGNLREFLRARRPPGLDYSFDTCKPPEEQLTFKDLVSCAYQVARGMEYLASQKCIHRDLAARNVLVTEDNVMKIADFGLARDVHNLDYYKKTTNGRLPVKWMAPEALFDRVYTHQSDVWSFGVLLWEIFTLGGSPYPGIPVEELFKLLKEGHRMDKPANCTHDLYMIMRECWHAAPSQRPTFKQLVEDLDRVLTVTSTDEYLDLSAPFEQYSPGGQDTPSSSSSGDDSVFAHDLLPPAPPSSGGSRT
# Sequence of Fibroblast growth factor receptor 1 (P11362 whole entry): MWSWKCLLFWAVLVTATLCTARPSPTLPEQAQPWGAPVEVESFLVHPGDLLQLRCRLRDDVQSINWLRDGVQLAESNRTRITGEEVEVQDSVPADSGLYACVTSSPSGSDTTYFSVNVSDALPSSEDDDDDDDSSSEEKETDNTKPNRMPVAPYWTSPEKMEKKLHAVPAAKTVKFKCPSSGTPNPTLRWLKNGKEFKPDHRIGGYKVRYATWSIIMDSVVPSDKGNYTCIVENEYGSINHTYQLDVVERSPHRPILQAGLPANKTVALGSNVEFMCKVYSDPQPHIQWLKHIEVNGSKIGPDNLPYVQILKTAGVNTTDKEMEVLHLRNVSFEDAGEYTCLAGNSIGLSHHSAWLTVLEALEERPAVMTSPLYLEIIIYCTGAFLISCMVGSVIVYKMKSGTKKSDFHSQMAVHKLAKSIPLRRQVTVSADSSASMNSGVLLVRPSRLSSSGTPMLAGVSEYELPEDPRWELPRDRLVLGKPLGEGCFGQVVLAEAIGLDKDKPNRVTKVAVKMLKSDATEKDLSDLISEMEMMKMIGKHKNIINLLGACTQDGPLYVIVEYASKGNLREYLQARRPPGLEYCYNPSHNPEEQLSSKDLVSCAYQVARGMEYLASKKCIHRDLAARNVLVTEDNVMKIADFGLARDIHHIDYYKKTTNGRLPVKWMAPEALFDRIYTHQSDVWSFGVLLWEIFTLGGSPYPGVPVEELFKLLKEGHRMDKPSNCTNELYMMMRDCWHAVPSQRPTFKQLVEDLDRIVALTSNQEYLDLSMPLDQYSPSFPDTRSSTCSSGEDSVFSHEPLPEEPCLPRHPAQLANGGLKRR
# Sequence of Fibroblast growth factor receptor 2 (P21802 whole entry): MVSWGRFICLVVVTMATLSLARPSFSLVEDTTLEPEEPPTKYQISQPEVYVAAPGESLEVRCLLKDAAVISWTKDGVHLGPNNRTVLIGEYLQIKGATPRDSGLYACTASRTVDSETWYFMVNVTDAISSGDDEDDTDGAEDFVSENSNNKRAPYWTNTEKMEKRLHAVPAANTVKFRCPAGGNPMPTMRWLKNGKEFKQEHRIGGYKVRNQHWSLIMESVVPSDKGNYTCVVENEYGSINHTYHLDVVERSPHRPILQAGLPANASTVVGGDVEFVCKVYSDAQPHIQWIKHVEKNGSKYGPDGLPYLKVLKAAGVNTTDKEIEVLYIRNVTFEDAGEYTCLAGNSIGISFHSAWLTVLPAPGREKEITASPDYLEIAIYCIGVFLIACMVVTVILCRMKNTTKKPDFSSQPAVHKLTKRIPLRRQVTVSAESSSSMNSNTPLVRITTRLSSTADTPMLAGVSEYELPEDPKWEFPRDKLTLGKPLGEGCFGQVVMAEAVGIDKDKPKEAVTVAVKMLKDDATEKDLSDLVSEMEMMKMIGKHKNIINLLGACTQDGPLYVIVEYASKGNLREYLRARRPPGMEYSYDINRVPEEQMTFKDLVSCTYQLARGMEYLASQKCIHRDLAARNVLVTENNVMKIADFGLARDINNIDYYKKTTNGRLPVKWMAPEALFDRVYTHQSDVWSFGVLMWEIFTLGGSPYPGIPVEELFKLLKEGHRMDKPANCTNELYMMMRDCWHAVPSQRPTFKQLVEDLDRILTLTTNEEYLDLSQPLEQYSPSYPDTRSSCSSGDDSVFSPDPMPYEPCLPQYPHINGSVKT
structure (smiles),measurement,setting,value
C=CC(=O)N1CCC(c2cc3c(Oc4ccc(NC(=O)NC5CC5)c(Cl)c4)ccnc3cc2OC)CC1,half-life,[1],61.9 min
same,Activity,[2],Active
same,IC50,HT-29,7230 nM
same,AUC(0-inf),[3],14900 ng·h/mL
same,"Papp at 16 h, 10 µM",[4],12.3 ×10⁻⁶ cm/s
same,Vd,[5],1.32 L/kg
same,IC50,SNU-16,1.8 nM
same,Tmax,[6],30 min
same,AUC(0-inf),[7],1970 ng·h/mL
same,MRT,[8],190 min
same,Tmax,[9],4.8 min
same,IC50,Huh-7 [10],12.6 nM
same,pKa,[11],5.77
same,Activity,Huh-7 [12],89.6%
same,Tmax,[13],15 min
same,IC50,[14],9.9 nM
same,Activity,[15],Active
same,MRT,[16],11.4 min
same,IC50,Hep 3B2,52.6 nM
same,Activity,NCI-H1581 [17],67%
same,IC50,[18],357 nM
same,IC50,MV4-11,> 10000 nM
same,Cmax,[19],6070 ng/mL
same,bioavailability,[20],60.7%
same,AUC(0-t),[21],1730 ng·h/mL
same,half-life,[22],15.6 min
same,Cmax,[23],1840 ng/mL
same,Tmax,[24],30 min
same,IC50,[25],3.1 nM
same,AUC(0-t),[26],7920 ng·h/mL
same,C0,[27],3300 ng/mL
same,IC50,A549,> 10000 nM
same,Activity,Huh-7 [28],88.2%
same,clearance,[29],58 mL/min/kg
same,Tmax,[30],30 min
same,AUC(0-t),[31],570 ng·h/mL
same,half-life,[32],81.6 min
same,IC50,NCI-H1581 [33],< 0.31 nM
same,half-life,[34],149 min
same,IC50,[35],16 nM
